Data from US9073940B2, “Tricyclic pyrazol amine derivatives” (MERCK SERONO SA, priority 2009, dated 2015).

System: 4 PI3K isoforms (Human recombinant GST-PI3K)
Test: PI3K scintillation proximity assay, best IC50 obtained with the four isoforms (alpha, beta, delta, gamma)
Type: biochemical
Conditions: best IC50 obtained with the four isoforms of PI3K; read-out: Best potency measured on the 4 PI3K isoforms

Point of comparison: O=C(c1nn(C2CN3CCC2CC3)c2c1CS(=O)(=O)c1ccccc1-2)N1CCOCC1 (stereo not shown) [Example 393], IC50 10200 nM. Against it:
- COCCN(CCOC)CCN1CCC[C@H](n2nc(C(=O)N3CCOCC3)c3c2-c2ccccc2S(=O)(=O)C3)C1 (stereo in doubt) [Example 448, 2-methoxy-N-(2-methoxyethyl)-N-(2-{3-[3-(morpholin-4-ylcarbonyl)-5,5-dioxidothiochromeno[4,3-c]pyrazol-1(4H)-yl]piperidin-1-yl}ethyl)ethanamine] — 90-fold lower, 113 nM
- O=C(c1nn([C@@H]2CCCN(CCC3CCOCC3)C2)c2c1CS(=O)(=O)c1ccccc1-2)N1CCOCC1 (single isomer, unassigned) [Example 307, 3-(morpholin-4-ylcarbonyl)-1-{1-[2-(tetrahydro-2H-pyran-4-yl)ethyl]piperidin-3-yl}-1,4-dihydrothiochromeno[4,3-c]pyrazole 5,5-dioxide] — 4.6-fold lower, 2200 nM
- COCCN1CCC(n2nc(C(=O)N3CCOCC3)c3c2-c2ccccc2S(=O)(=O)C3)CC1 [Example 101, 1-[1-(2-Methoxyethyl)piperidin-4-yl]-3-(morpholin-4-ylcarbonyl)-1,4-dihydrothiochromeno[4,3-c]pyrazole 5,5-dioxide] — 5.3-fold lower, 1920 nM
- O=C(c1nn(-c2ccc(CN3CCOCC3)cc2)c2c1CS(=O)(=O)c1ncccc1-2)N1CCOCC1 [Example 211] — 26-fold lower, 400 nM
- COc1ccc2c(c1)S(=O)(=O)Cc1c(C(=O)N3CCOCC3)nn([C@@H]3CCCN(CCC4CCOCC4)C3)c1-2 (single isomer, unassigned) [Example 373] — within 1.5-fold, 10300 nM
- O=C(c1nn(-c2ccc(CN3CCOCC3)nc2)c2c1CS(=O)(=O)c1ccccc1-2)N1CCOCC1 [Example 216, 3-(Morpholin-4-ylcarbonyl)-1-[6-(morpholin-4-ylmethyl)pyridin-3-yl]-1,4-dihydrothiochromeno[4,3-c]pyrazole 5,5-dioxide] — 17-fold lower, 614 nM
- Cn1cc(-c2cccc(-n3nc(C(=O)N4CCOCC4)c4c3-c3ccccc3S(=O)(=O)C4)c2)cn1 [Example 185, 1-[3-(1-Methyl-1H-pyrazol-4-yl)phenyl]-3-(morpholin-4-ylcarbonyl)-1,4-dihydrothiochromeno[4,3-c]pyrazole 5,5-dioxide] — 55-fold lower, 184 nM
- COCCN1CCC(Cn2nc(C(=O)N3CCOCC3)c3c2-c2ccccc2S(=O)(=O)C3)CC1 [Example 190, 1-{[1-(2-Methoxyethyl)piperidin-4-yl]methyl}-3-(morpholin-4-ylcarbonyl)-1,4-dihydrothiochromeno[4,3-c]pyrazole 5,5-dioxide] — 15-fold lower, 681 nM
- CC1CN(C(=O)c2nn(-c3ccccc3)c3c2CS(=O)(=O)c2ccccc2-3)CCO1 (stereo not shown) [Example 163, 3-[(2-Methylmorpholin-4-yl)carbonyl]-1-phenyl-1,4-dihydrothiochromeno[4,3-c]pyrazole 5,5-dioxide] — 4.7-fold lower, 2160 nM
- O=C(c1nn([C@H]2CCCNC2)c2c1CS(=O)(=O)c1ccccc1-2)N1CCOCC1 (single isomer, unassigned) [Example 359] — 9.6-fold lower, 1060 nM
- COCCOc1cccc(-n2nc(C(=O)N3CCOCC3)c3c2-c2ccccc2S(=O)(=O)C3)c1 [Example 341, 1-[3-(2-Methoxyethoxy)phenyl]-3-(morpholin-4-ylcarbonyl)-1,4-dihydrothiochromeno[4,3-c]pyrazole 5,5-dioxide] — 14-fold lower, 726 nM
- COC1CCN(CCN2CCC[C@H](n3nc(C(=O)N4CCOCC4)c4c3-c3ccccc3S(=O)(=O)C4)C2)C1 (stereo in doubt) [Example 439, 1-{1-[2-(3-methoxypyrrolidin-1-yl)ethyl]piperidin-3-yl}-3-(morpholin-4-ylcarbonyl)-1,4-dihydrothiochromeno[4,3-c]pyrazole 5,5-dioxide] — 410-fold lower, 25 nM
- O=C(c1nn(-c2ccccc2)c2c1CS(=O)(=O)c1ccc(F)cc1-2)N1CCOCC1 [Example 17, 8-fluoro-3-(morpholin-4-ylcarbonyl)-1-phenyl-1,4-dihydrothiochromeno[4,3-c]pyrazole 5,5-dioxide] — 10-fold lower, 987 nM
- O=C(c1nn(-c2ccccc2)c2c1CS(=O)(=O)c1ncccc1-2)N1CCOCC1 [Example 132, 3-(Morpholin-4-ylcarbonyl)-1-phenyl-1,4-dihydropyrazolo[3′,4′:4,5]thiopyrano[2,3-b]pyridine 5,5-dioxide] — 19-fold lower, 530 nM
- O=C(c1nn(CCc2ccccc2)c2c1CS(=O)(=O)c1ccccc1-2)N1CCOCC1 [Example 41, 3-(morpholin-4-ylcarbonyl)-1-(2-phenylethyl)-1,4-dihydrothiochromeno[4,3-c]pyrazole 5,5-dioxide] — 7.1-fold lower, 1440 nM
- O=C(c1nn(-c2ccccc2)c2c1CS(=O)(=O)c1ccc([N+](=O)[O-])cc1-2)N1CCOCC1 [Example 36, 3-(morpholin-4-ylcarbonyl)-8-nitro-1-phenyl-1,4-dihydrothiochromeno[4,3-c]pyrazole 5,5-dioxide] — 5.6-fold lower, 1830 nM
- O=C(c1nn(-c2cccc(CN3CCCC(F)(F)C3)c2)c2c1CS(=O)(=O)c1ccccc1-2)N1CCOCC1 [Example 244, 1-{3-[(3,3-Difluoropiperidin-1-yl)methyl]phenyl}-3-(morpholin-4-ylcarbonyl)-1,4-dihydrothiochromeno[4,3-c]pyrazole 5,5-dioxide] — 6.6-fold lower, 1540 nM
- CN(C)c1ccc2c(c1)S(=O)(=O)Cc1c(C(=O)N3CCOCC3)nn(-c3ccccc3)c1-2 [Example 152, N,N-Dimethyl-3-(morpholin-4-ylcarbonyl)-1-phenyl-1,4-dihydrothiochromeno[4,3-c]pyrazol-7-amine 5,5-dioxide] — 2-fold lower, 5020 nM
- COC1CN(Cc2cccc(-n3nc(C(=O)N4CCOCC4)c4c3-c3ccccc3S(=O)(=O)C4)c2)C1 [Example 262, 1-{3-[(3-Methoxyazetidin-1-yl)methyl]phenyl}-3-(morpholin-4-ylcarbonyl)-1,4-dihydrothiochromeno[4,3-c]pyrazole 5,5-dioxide] — 37-fold lower, 277 nM
- CN1CCCC(Cn2nc(C(=O)N3CCOCC3)c3c2-c2ccccc2S(=O)(=O)C3)C1 (stereo not shown) [Example 70, 1-[(1-Methylpiperidin-3-yl)methyl]-3-(morpholin-4-ylcarbonyl)-1,4-dihydrothiochromeno[4,3-c]pyrazole 5,5-dioxide] — 1.7-fold lower, 6050 nM
- CC(=O)N1CCC(Cn2nc(C(=O)N3CCOCC3)c3c2-c2ccccc2S(=O)(=O)C3)CC1 [Example 191, 1-[(1-Acetylpiperidin-4-yl)methyl]-3-(morpholin-4-ylcarbonyl)-1,4-dihydrothiochromeno[4,3-c]pyrazole 5,5-dioxide] — 3.6-fold lower, 2820 nM
- O=C(NC1CCOCC1)c1cccc(-n2nc(C(=O)N3CCOCC3)c3c2-c2ccccc2S(=O)(=O)C3)c1 [Example 148, 3-[3-(Morpholin-4-ylcarbonyl)-5,5-dioxidothiochromeno[4,3-c]pyrazol-1(4H)-yl]-N-(tetrahydro-2H-pyran-4-yl)benzamide] — 8.1-fold lower, 1260 nM
- CS(=O)(=O)N1CCCC(n2nc(C(=O)N3CCOCC3)c3c2-c2ccccc2S(=O)(=O)C3)C1 (stereo not shown) [Example 135, 1[1-(Methylsulfonyl)piperidin-3-yl]-3-(morpholin-4-ylcarbonyl)-1,4-dihydrothiochromeno[4,3-c]pyrazole 5,5-dioxide] — 10-fold lower, 994 nM
- 3-(Morpholin-4-ylcarbonyl)-1-phenyl-4H- imidazo[5,1-c][1,4]benzothiazine 5,5-dioxide [Example 486] — 3.7-fold lower, 2740 nM
- O=C(c1nn([C@@H]2CCCN(C3CCCOC3)C2)c2c1CS(=O)(=O)c1ncccc1-2)N1CCOCC1 (single isomer, unassigned) [Example 379, 3-(morpholin-4-ylcarbonyl)-1-[1-(tetrahydro-2H-pyran-3-yl)piperidin-3-yl]-1,4-dihydropyrazolo[3′,4′:4,5]thiopyrano[2,3-b]pyridine 5,5-dioxide] — 3.5-fold lower, 2930 nM
- O=C(CCN1CCC[C@H](n2nc(C(=O)N3CCOCC3)c3c2-c2ccccc2S(=O)(=O)C3)C1)N1CC(F)(F)C1 (stereo in doubt) [Example 429, 1-{1-[3-(3,3-difluoroazetidin-1-yl)-3-oxopropyl]piperidin-3-yl}-3-(morpholin-4-ylcarbonyl)-1,4-dihydrothiochromeno[4,3-c]pyrazole 5,5-dioxide] — 260-fold lower, 39 nM
- Cc1nc2ccc(-n3nc(C(=O)N4CCOCC4)c4c3-c3ccccc3S(=O)(=O)C4)cc2s1 [Example 24, 1-(2-methyl-1,3-benzothiazol-6-yl)-3-(morpholin-4-ylcarbonyl)-1,4-dihydrothiochromeno[4,3-c]pyrazole 5,5-dioxide] — 15-fold lower, 662 nM
- CC(C)(C)OC(=O)N1CCCC(n2nc(C(=O)N3CCOCC3)c3c2-c2ccccc2S(=O)(=O)C3)C1 (stereo not shown) [Example 120] — 6.6-fold lower, 1540 nM
- O=C(c1nn(-c2cccc(CN3CCCCC3)c2)c2c1CS(=O)(=O)c1ccccc1-2)N1CCOCC1 [Example 178, 3-(Morpholin-4-ylcarbonyl)-1-[3-(piperidin-1-ylmethyl)phenyl]-1,4-dihydrothiochromeno[4,3-c]pyrazole 5,5-dioxide] — 26-fold lower, 394 nM
- CC(=O)Nc1ccc2c(c1)-c1c(c(C(=O)N3CCOCC3)nn1-c1ccccc1)CS2(=O)=O [Example 100, N-[3-(Morpholin-4-ylcarbonyl)-5,5-dioxido-1-phenyl-1,4-dihydrothiochromeno[4,3-c]pyrazol-8-yl]acetamide] — 12-fold lower, 876 nM
- CC(C)CCOC1CCN(Cc2cccc(-n3nc(C(=O)N4CCOCC4)c4c3-c3ccccc3S(=O)(=O)C4)c2)C1 (stereo not shown) [Example 235, 1-(3-{[3-(3-Methylbutoxy)pyrrolidin-1-yl]methyl}phenyl)-3-(morpholin-4-ylcarbonyl)-1,4-dihydrothiochromeno[4,3-c]pyrazole 5,5-dioxide] — 26-fold lower, 389 nM
- CN(C)Cc1cccc(-n2nc(C(=O)N3CCOCC3)c3c2-c2ccccc2S(=O)(=O)C3)c1 [Example 179, N,N-Dimethyl-1-{3-[3-(morpholin-4-ylcarbonyl)-5,5-dioxidothiochromeno[4,3-c]pyrazol-1 (4H)-yl]phenyl}methanamine] — 9.2-fold lower, 1110 nM
- CC1CN(Cc2ccc(-n3nc(C(=O)N4CCOCC4)c4c3-c3ccccc3S(=O)(=O)C4)cc2)CC(C)O1 (stereo not shown) [Example 435, 1-{4-[(2,6-Dimethylmorpholin-4-yl)methyl]phenyl}-3-(morpholin-4-ylcarbonyl)-1,4-dihydrothiochromeno[4,3-c]pyrazole 5,5-dioxide] — 180-fold lower, 57 nM
